The target in test [1] is Melanin-concentrating hormone receptor 1 (Homo sapiens, UniProt Q99705). In words: Fluorescence-based counterscreen for antagonists of the G-protein coupled receptor 7 (GPR7): cell-based high throughput dose response assay to identify antagonists of the melanin-concentrating hormone receptor 1 (MCHR1). The class given is functional.
In test [2] the target is RNA-editing ligase 1, mitochondrial (Trypanosoma brucei brucei, UniProt P86926). In words: TbREL1 ligase inhibitors, dose response, biochemical, fluorescence, Trypanosoma brucei (AID 1117295). The test is classed as functional.
Test [3] has as its target Induced myeloid leukemia cell differentiation protein Mcl-1 (Homo sapiens, UniProt Q07820). The test is classed as functional.
Test [4] deals with T1, Estrogen receptor (Homo sapiens, UniProt P03372).
T1 sequence (P03372 whole entry): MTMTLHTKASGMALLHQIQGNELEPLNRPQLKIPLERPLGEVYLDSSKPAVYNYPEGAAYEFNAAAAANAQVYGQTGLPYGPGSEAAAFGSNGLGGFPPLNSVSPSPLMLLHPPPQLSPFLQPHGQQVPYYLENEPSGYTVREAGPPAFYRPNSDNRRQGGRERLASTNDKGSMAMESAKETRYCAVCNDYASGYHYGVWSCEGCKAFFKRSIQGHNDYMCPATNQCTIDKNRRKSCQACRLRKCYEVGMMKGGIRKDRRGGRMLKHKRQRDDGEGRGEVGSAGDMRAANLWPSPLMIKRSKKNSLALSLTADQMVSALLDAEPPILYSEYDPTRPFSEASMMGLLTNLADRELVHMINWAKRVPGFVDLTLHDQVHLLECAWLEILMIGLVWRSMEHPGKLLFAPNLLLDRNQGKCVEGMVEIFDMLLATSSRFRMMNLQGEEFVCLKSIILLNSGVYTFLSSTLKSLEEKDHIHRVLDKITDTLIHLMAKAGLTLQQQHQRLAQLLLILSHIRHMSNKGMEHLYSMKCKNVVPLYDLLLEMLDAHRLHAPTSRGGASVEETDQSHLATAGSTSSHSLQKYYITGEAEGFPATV
In words: ERα–SRC-3 coactivator interaction inhibitors, confirmation, orthogonal assay, biochemical, ELISA, streptavidin-HRP readout (AID 1079). On the technique in general: ELISA stands for enzyme-linked immunosorbent assay.

In the next test the target is Nonstructural protein 1 (Influenza A virus, UniProt Q194T2). The test is classed as functional, Influenza A virus (A/California/07/2009(H1N1)).
The nature of test [5]: enhancers of respiration in Yfh1-depleted yeast, dose response, Friedreich's ataxia, plus single-dose screen (AID 1465).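 Further: yeast depleted of Yfh1p frataxin homolog grown on glycerol needing respiration; WST-1 tetrazolium dye reduction as measure of cellular dehydrogenase metabolic activity.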 The class given is functional.
Test [6] concerns the target Acyl-homoserine lactone acylase PvdQ (Pseudomonas aeruginosa (strain LESB58), UniProt Q9I194). In words: P. aeruginosa PvdQ acylase inhibitors, dose response, biochemical, fluorescence, plate reader and imaging, cherry-picks (AID 493231).
The target in test [7] is T2, Heat shock 70 kDa protein 1A (Homo sapiens, UniProt P0DMV8). In words: Hsp70 inhibitors, biochemical, TR-FRET (AID 786). A general note: In TR-FRET formats the signal depends on donor and acceptor labels being close together.
T2 sequence (P0DMV8 whole entry): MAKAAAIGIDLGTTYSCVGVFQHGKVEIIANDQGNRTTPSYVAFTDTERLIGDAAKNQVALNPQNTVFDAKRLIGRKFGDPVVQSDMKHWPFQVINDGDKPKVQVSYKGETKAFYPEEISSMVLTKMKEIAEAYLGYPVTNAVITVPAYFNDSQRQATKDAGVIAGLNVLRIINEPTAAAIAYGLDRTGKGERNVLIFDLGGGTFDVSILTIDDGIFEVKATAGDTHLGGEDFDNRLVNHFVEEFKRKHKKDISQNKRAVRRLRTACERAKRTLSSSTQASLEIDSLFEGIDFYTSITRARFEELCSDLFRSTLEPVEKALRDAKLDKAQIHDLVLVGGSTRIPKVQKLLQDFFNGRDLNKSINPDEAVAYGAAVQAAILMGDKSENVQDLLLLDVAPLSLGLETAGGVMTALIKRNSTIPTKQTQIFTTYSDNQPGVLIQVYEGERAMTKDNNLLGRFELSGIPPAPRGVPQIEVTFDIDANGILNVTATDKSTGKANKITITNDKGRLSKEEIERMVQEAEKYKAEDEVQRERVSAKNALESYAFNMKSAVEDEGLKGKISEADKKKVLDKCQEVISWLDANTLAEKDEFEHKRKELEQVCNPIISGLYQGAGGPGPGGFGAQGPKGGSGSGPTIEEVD
Test [8] has as its target T3, Bcl-2-related protein A1 (Mus musculus, UniProt Q07440).
T3 sequence (Q07440 whole entry): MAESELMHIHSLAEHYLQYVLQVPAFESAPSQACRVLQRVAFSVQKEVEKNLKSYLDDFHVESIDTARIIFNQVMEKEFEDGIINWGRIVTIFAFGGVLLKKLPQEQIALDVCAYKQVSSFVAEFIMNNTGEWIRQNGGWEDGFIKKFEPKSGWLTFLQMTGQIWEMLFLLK
In words: Bfl-1 inhibitors, primary screen, biochemical, fluorescence polarization, FITC-Bid, mouse (AID 432). A general note: In fluorescence polarisation assays a small probe gives low polarisation when free and higher when bound to something large.

Test [9] deals with T2, Heat shock 70 kDa protein 1A. In words: Hsp70 inhibitors, probe displacement, primary screen, biochemical, fluorescence polarization (AID 583).
Test [10] concerns the target Mothers against decapentaplegic homolog 3 (Homo sapiens, UniProt P84022). In words: SMAD3 transcription factor inhibitors, dose response (AID 715). The class given is functional.
Test [11] deals with T3, Bcl-2-related protein A1. In words: Bfl-1 inhibitors blocking BH3 peptide binding, confirmation, biochemical, TR-FRET, mouse Bfl-1 (AID 621).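 Further: TR-FRET binding of GST-Bfl-1 to FITC-labelled Bid peptide via terbium antibody.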
For the next test, the target named is Estrogen receptor beta (Homo sapiens, UniProt Q92731). In words: ERβ–SRC-3 coactivator interaction inhibitors, confirmation, orthogonal assay, biochemical, ELISA, streptavidin-HRP readout (AID 1060).
Test [12] has as its target T4, Bcl-2-like protein 10 (Homo sapiens, UniProt Q9HD36).
T4 sequence (Q9HD36 whole entry): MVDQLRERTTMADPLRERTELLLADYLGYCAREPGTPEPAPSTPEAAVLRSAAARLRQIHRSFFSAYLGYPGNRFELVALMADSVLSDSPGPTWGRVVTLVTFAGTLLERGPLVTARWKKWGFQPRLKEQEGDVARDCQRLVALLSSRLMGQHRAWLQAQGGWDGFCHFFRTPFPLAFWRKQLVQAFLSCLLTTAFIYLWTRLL
In words: displacers of TR3 peptide from Bcl-B, primary screen, selectivity assay for Bfl-1 inhibitor project, biochemical, fluorescence polarization, FITC-TR3 peptide (AID 748).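 Further: fluorescence polarization from a fluorescein-labelled TR3 peptide binding purified Bcl-B.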

The target of test [13] is T5, Eukaryotic translation initiation factor 2-alpha kinase 3 (Homo sapiens, UniProt Q9NZJ5). In words: Dose response cell-based high-throughput screening assay to measure PERK inhibition. [Related pubchem assays: 1416 ]. The test is classed as functional.
T5 sequence (Q9NZJ5 whole entry): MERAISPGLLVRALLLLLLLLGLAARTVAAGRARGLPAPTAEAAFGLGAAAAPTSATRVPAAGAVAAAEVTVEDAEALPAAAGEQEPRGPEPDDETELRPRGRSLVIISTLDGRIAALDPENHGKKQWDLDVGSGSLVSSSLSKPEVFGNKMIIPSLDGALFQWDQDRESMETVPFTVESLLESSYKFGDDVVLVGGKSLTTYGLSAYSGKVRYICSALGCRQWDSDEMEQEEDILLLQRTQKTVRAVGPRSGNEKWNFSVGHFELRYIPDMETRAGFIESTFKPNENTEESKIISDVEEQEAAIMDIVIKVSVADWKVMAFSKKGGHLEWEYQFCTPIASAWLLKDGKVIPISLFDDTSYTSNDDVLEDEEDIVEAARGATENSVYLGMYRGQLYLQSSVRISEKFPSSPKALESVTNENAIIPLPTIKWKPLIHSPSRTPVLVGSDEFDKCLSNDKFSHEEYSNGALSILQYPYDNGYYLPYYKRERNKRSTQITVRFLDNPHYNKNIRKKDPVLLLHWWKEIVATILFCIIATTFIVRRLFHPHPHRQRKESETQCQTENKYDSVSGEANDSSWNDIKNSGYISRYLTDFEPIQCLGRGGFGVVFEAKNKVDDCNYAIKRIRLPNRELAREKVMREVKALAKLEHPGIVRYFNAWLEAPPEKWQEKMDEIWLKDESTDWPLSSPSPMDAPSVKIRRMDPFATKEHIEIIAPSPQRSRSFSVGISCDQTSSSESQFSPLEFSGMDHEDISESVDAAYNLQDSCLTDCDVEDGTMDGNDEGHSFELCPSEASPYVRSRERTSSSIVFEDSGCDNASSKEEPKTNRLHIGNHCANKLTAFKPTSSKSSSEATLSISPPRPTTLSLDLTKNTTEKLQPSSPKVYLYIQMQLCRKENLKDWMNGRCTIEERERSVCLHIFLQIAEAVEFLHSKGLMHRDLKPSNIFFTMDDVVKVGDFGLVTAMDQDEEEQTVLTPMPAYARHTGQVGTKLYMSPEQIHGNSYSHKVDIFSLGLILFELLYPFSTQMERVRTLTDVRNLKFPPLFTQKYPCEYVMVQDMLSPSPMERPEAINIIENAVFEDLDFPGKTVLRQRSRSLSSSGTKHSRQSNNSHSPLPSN
The target in test [14] is T5, Eukaryotic translation initiation factor 2-alpha kinase 3. In words: Counterscreen assay for PERK inhibitors: Dose response cell-based high throughput screening assay to measure inhibition of PERK at 6 hours. [Related pubchem assays: 1522, 1416 ]. The class given is functional.
Test [15] deals with T6, Alkaline phosphatase, tissue-nonspecific isozyme (Homo sapiens, UniProt P05186).
T6 sequence (P05186 whole entry): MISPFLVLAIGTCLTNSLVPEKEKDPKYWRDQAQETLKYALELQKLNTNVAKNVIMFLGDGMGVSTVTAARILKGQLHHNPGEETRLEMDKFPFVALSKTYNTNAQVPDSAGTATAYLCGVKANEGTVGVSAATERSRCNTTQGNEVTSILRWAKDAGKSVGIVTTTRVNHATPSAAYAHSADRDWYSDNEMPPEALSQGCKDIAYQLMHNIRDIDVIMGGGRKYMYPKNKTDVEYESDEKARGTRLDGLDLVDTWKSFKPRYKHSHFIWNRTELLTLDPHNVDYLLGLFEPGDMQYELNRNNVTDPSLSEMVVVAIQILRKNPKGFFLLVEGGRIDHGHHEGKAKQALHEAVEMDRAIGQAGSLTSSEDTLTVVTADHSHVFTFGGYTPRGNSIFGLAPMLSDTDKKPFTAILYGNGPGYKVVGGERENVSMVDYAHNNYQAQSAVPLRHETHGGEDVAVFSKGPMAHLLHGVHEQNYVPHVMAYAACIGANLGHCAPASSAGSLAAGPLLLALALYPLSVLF

The test system of another test is HT-1080. In words: cytotoxicity in HT1080 fibrosarcoma cells, cell-based, fluorescence readout (AID 620). The class given is functional. The settings on record: Homo sapiens.
Test [16] has as its target Luciferin 4-monooxygenase (Photinus pyralis, UniProt P08659). In words: Counter Screen for Luciferase-based Assay Positives. [Related pubchem assays: 620, 618, 411 ].
Test [17] addresses Photoreceptor-specific nuclear receptor (Homo sapiens, UniProt Q9Y5X4). The test is classed as functional, cell-based.
Test [18] concerns the target T1, Estrogen receptor. In words: potentiators of ERα–SRC-1 coactivator binding, dose response, biochemical, TR-FRET, ERα LBD (AID 737).
Test [19] in a line: Luminescence-based counterscreen assay for KLF5 inhibitors: dose response cell-based high throughput screening assay to identify cytotoxic compounds using the IEC-6 intestinal epithelial cell line. [Related pubchem assays: 1700 (Primary screen.), 1834 (Confirmation screen.), 1858 (Summary AID.), 1905 (Counterscreen.)]. The test is classed as functional.
The nature of test [20]: cytotoxicity in HEK-293T cells, dose response, cytotoxicity control for BCR NF-kB inhibitor project, luminescence, B-cell screen hits (AID 489021).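 Further: HEK-293T cells carrying an NF-kB luciferase reporter; cells exposed to compound for about 14 hours before viability readout.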 The test is classed as functional, cell-based.
The next test has as its target Cytochrome P450 2C9 (Homo sapiens, UniProt P11712). The settings on record: Potency.
The next test deals with Cytochrome P450 3A4 (Homo sapiens, UniProt P08684). The settings on record: Potency.
Test [21] concerns the target T4, Bcl-2-like protein 10. In words: Biochemical TR3 FP assay of Bcl-B inhibitor potency, EC50 (AID 1243). The class given is functional.
Test [22] has as its target T7, Ion channel NompC (Danio rerio, UniProt Q7T1G6). In words: Fluorescence counterscreen assay for TRPML3 agonists: dose response cell-based high-throughput screening assay to identify agonists of the transient receptor potential channel N1 (TRPN1). [Related pubchem assays: 1526, 1424, 1448 ]. The class given is functional.
Test [23] deals with T7, Ion channel NompC. In words: TRPML3 and TRPML2 channel agonists, cell-based, patch clamp, Fura-2 profiling panel, panel member TRPN1 Dose Response (AID 2116).
Test [24] concerns the target T8, Mucolipin-3 (Homo sapiens, UniProt Q8TDD5).
T8 sequence (Q8TDD5 whole entry): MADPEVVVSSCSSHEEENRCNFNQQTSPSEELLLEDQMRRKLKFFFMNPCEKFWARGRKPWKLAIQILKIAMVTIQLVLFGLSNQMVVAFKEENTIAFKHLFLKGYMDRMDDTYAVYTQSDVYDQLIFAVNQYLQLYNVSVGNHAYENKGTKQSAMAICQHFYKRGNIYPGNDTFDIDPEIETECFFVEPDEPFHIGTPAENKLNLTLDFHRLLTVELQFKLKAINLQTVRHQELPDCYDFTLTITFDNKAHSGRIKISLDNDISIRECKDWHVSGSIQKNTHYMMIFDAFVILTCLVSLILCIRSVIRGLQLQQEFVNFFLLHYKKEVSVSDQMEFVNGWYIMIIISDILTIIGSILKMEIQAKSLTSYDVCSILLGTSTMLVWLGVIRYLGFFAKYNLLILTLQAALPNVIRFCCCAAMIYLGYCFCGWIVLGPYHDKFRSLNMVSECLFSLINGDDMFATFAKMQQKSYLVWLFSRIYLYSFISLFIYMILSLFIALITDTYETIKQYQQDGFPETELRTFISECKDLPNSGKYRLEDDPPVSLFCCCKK
In words: TRPML3 and TRPML2 channel agonists, cell-based, patch clamp, Fura-2 profiling panel, panel member TRPML3 Dose Response (AID 2116).

Test [25] addresses T8, Mucolipin-3. In words: Dose response cell-based high-throughput screening assay for agonists of the transient receptor potential channel ML3 (TRPML3). [Related pubchem assays: 1526, 1424, 1448 ]. The test is classed as functional.
Test [26] is described as follows: inhibitors of Bluetongue virus cytopathic effect, confirmation, arbovirus, BSR cells (AID 1250).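 Further: protection from viral cytopathic effect measured as cell viability by ATP luminescence.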 The class given is functional.

15 compounds from ChEMBL document CHEMBL1201862, “PubChem BioAssay data set” (2004) can be followed below.

Activity calls are given as the source filed them.

T7 sequence (Q7T1G6 whole entry): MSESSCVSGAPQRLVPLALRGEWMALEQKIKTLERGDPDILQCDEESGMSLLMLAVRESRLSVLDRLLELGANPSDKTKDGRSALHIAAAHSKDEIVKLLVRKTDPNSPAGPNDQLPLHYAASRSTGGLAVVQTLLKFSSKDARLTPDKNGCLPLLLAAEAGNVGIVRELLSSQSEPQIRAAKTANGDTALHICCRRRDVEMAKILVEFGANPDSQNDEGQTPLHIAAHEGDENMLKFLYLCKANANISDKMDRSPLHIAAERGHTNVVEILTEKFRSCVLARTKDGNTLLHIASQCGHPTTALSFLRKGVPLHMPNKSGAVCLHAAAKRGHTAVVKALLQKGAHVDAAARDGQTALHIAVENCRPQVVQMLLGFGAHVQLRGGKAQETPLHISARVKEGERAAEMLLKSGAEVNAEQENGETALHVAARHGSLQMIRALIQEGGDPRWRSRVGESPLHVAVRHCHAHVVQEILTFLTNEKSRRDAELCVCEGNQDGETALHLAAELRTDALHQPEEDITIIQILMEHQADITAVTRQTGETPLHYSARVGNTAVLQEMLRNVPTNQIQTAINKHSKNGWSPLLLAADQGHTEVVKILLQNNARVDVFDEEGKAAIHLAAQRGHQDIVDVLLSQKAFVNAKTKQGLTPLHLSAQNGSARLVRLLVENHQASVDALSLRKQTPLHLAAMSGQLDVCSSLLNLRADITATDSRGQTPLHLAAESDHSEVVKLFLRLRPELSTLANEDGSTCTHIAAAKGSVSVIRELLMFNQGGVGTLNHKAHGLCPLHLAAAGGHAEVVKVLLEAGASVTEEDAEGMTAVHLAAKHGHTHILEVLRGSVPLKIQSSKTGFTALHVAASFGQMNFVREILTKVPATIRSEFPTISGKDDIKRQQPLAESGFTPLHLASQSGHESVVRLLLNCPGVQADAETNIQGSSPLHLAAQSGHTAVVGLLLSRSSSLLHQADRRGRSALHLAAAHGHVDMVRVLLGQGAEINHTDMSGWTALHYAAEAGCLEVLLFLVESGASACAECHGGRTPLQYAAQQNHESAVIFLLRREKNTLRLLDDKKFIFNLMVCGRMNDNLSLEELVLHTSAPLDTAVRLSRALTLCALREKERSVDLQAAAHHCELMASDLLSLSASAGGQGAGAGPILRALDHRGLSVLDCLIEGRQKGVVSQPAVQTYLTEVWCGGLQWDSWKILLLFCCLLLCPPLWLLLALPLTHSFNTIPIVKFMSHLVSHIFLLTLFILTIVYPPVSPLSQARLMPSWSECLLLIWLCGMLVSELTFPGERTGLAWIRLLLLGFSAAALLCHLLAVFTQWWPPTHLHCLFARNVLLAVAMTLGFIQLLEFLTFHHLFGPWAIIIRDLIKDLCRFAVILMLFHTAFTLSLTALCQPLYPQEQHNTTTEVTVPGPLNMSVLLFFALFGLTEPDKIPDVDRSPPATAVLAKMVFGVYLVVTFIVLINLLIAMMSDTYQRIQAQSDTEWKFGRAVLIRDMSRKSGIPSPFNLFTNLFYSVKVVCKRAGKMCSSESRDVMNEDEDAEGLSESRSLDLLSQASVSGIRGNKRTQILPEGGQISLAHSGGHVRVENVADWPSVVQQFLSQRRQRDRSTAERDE
Mothers against decapentaplegic homolog 3, sequence (P84022 whole entry): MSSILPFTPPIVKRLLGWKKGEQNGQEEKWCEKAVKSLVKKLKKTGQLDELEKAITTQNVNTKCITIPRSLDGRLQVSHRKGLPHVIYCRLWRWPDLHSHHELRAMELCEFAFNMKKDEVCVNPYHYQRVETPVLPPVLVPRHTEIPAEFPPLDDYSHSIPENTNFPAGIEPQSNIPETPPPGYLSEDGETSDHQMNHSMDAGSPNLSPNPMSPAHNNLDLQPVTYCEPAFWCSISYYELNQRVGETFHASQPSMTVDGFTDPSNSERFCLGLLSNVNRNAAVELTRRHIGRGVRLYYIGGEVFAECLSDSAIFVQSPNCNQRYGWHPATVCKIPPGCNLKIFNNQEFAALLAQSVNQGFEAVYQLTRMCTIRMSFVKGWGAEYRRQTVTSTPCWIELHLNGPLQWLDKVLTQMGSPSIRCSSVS
Melanin-concentrating hormone receptor 1, sequence (Q99705 whole entry): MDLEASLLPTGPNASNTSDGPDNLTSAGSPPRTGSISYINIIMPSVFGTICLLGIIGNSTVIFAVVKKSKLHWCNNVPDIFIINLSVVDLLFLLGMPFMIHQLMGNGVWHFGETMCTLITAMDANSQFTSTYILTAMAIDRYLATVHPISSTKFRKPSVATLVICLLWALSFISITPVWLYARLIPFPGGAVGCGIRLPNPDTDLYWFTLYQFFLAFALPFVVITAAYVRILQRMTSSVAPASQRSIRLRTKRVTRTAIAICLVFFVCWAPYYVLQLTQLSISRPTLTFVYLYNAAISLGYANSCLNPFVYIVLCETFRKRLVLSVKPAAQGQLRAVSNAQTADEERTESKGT
Photoreceptor-specific nuclear receptor, sequence (Q9Y5X4 whole entry, the tested form may be a part): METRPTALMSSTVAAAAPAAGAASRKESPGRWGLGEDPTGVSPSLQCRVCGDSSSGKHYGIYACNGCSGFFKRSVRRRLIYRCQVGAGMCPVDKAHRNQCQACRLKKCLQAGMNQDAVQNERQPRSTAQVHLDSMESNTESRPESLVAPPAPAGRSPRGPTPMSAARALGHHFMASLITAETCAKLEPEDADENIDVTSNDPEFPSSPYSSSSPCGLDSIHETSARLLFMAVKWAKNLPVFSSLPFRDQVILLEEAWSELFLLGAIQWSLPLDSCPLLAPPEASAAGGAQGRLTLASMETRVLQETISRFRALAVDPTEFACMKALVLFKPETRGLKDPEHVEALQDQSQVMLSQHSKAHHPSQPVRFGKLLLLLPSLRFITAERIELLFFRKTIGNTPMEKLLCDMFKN
Cytochrome P450 2C9, sequence (P11712 whole entry): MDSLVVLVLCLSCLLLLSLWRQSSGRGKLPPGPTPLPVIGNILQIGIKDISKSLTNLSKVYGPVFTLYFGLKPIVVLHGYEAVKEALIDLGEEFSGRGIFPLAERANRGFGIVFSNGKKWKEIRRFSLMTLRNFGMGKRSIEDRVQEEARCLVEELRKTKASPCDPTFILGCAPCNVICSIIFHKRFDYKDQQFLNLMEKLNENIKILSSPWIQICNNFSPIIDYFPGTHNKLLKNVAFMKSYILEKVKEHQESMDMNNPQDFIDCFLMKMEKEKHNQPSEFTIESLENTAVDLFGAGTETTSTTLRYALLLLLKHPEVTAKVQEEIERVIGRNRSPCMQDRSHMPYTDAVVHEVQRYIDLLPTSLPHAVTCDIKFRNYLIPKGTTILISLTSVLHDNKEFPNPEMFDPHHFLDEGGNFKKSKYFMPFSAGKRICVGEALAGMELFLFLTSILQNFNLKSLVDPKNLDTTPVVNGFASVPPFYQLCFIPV

As a reminder, the IC50 is the concentration needed to halve the response being measured. Regarding `COCCNC1=N[C@@H](c2cccc(C(F)(F)F)c2)C(C(=O)OC)=C(C)N1Cc1ccccc1`, the figures for the IC50 in [1] and in [2] were 14.7 µM (not active) and > 96.6 µM (inactive), respectively.
Regarding `CN(C)c1ccc(/C=N/N(Cc2ccccc2)c2ccccc2)cc1`, in test [3], the IC50 is listed as 1.52 µM (not active).
Turning to `O=C(CCCn1c(=S)[nH]c2ccccc2c1=O)N1CCN(c2ccccc2O)CC1`, the IC50 on Estrogen receptor [4] is 0.07 µM (not active).
In general, EC50 refers to the concentration giving half of the maximal effect. With `CC(C)(C)C1=CC(=O)C(N2CCOCC2)=CC1=O`, the IC50 on Nonstructural protein 1 was > 100 µM (active). In addition, the EC50 in [5] is > 100 µM (active).
As usually defined, the AC50 is the midpoint of the concentration-response curve, whichever way the signal moves. For the compound `CC(C)CCNC(=O)c1cccc(Cl)c1`, in [6], the AC50 is 6.33 µM (active).
Regarding `COc1cccc(C(=O)NC2CC3CCCC(C2)N3CC(=O)Nc2ccccc2)c1` (stereo unspecified), the IC50 in test [7] was 11.4 µM (active); against Bcl-2-related protein A1 [8] it was > 100 µM (not active); in test [9] it was 45.4 µM (active); in test [10] it was 9.46 µM (active); at Bcl-2-related protein A1 [11] it was > 100 µM (not active); against Estrogen receptor beta, 44.6 µM (not active). The IC50 on Bcl-2-like protein 10 [12] is 73.6 µM (inactive).
As for `CC(C)C(=O)Nc1ccc2c(c1)nc(CCN1CCN(C)CC1)n2C`, the EC50 in test [13] and in test [14] was > 55.7 µM (not active) in each case.
For `Cc1ccc(N(C(=O)c2ccn[nH]2)C(C(=O)NC2CCCC2)c2cccs2)cc1` (stereo unspecified), the EC50 in test [15] is listed as > 100 µM (not active).
On to `CCOC(=O)CNC(=O)CSc1ncnc2c1cnn2-c1ccc(C)cc1`, for which the 50% effective concentration (EC50) was > 50 µM (not active) in the test on HT-1080 and < 0.2 µM (active) in [16].
On to `Cc1ccc(NC(=O)CSc2nnnn2-c2ccc3c(c2)OCO3)cc1C`, for which the IC50 in test [17] is 0.581 µM (active). The EC50 at Estrogen receptor [18] was 8.47 µM (active).
For the compound `Cc1ccc(/C=C2/SC(=S)N(CCCC(=O)Nc3ccc(O)cc3)C2=O)cc1`, the IC50 in [19] is 14.1 µM (not active); in test [20] it was > 80 µM (inactive).
As for `OC1c2ccccc2-c2nc3ccccc3cc21` (stereo unspecified), the AC50 on Cytochrome P450 2C9 and at Cytochrome P450 3A4 was 25.1 µM (inconclusive) each time.
As to `OC1=c2ccccc2=C(O)C12N=Nc1nnc(S)n1N2`, the EC50 on Bcl-2-like protein 10 [21] is 23.8 µM (active).
For `Cc1ccc(Cl)cc1N1CCN(S(=O)(=O)N2CCCCC2)CC1`, the EC50 was > 29.9 µM (not active) on Ion channel NompC [22], > 29.9 µM (inactive) on Ion channel NompC [23], 3.46 µM (active) on Mucolipin-3 [24] and 1.84 µM (active) at Mucolipin-3 [25].
Turning to `N#Cc1c(O)nc(SCC(=O)Nc2nnc(C(F)(F)F)s2)nc1-c1ccccc1`, the IC50 in [26] is 28.1 µM (active).
